Holding throughout (assay type): cell-based
Test [1] deals with Wnt activity (Sp5-Luc reporter, SW480 colon carcinoma cells). Put plainly: Screening assay for Wnt activity: Sp5-Luc reporter gene assay in SW480 cells. The settings on record: Homo sapiens; for inhibition at 10 µM: 10 μM compound, read-out: percent inhibition at 10 μM (given for EC50 of >10 μM); for EC50: overnight incubation, 10-point dose-response from 10 μM. The method in brief:
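Luminescence (BrightGlo) read after overnight 37 °C exposure of Sp5-Luc SW480 reporter cells, 4,000/well in 1% FBS, to compound dosed 1:3 over 10 points from 10 μM with 0.1% DMSO. Values normalized to DMSO-only cells, fitted with variable-slope four-parameter model; where EC50 exceeds 10 μM, % inhibition at 10 μM reported.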
On the technique in general: In a reporter assay the amount or activity of a reporter protein is the signal.

The next test relates to SW480 colon cancer cells. Put plainly: Cell viability assay (CellTiter-Blue), four days. The settings on record: Homo sapiens, 96 h; for EC50: CellTiter-Blue cell viability; for inhibition at 10 µM: read-out: percent inhibition at 10 μM (given for EC50 of >10 μM). The method in brief: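 Four-day viability readout in SW480 cells: compound at 0.0045–10 μM (1:3 series), DMSO controls in eight replicates, CellTiter-Blue fluorescence after ~3 h. Values are regression-derived EC50s, or percent inhibition at 10 μM when EC50 exceeds 10 μM.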
Background: Alamar Blue is a resazurin reagent that responds to reducing activity.

Test [2] concerns primary human fibroblasts derived from IPF patients (LL29 cells), α-smooth muscle actin (αSMA). Description: Inhibition of the fibrotic process: TGF-β1-treated primary human fibroblasts from IPF patients, αSMA staining. The settings on record: Fibroblast, 96 h, 4 days; for EC50: LL29 fibroblasts from IPF patients, TGF-β1 20 ng/mL, inhibition of fibrotic process; for inhibition at 10 µM: LL29 fibroblasts, TGF-β1 treated, read-out: percent inhibition at 10 μM (given for EC50 of >10 μM). In outline:
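Potency reflects suppression of TGF-β1-driven αSMA expression in IPF patient fibroblasts over 4 days. Values are EC50s from normalized αSMA-positive cell counts, with % inhibition at 10 μM when EC50 exceeded 10 μM.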

Molecules are shown by their SMILES.

A word on the inhibition: it is the percentage by which the read-out fell short of the control. What is called EC50 is the concentration giving half of the maximal effect. High values mean a need for much substance, low ones an effect from little substance.

`Cc1ccncc1-c1ccc2[nH]nc(-c3nc4c(-c5ccncc5)ccnc4[nH]3)c2n1` [Compound 117, 5-(4-methylpyridin-3-yl)-3-(7-(pyridin-4-yl)-3H-imidazo[4,5-b]pyridin-2-yl)-1H-pyrazolo[4,3-b]pyridine]: the inhibition at 10 µM in test [1] was 4.8%; with SW480 colon cancer cells it was 1.7%; in test [2], 2.8%. For the same molecule, the EC50 (in test [1]; in the test on SW480 colon cancer cells; in test [2]) was over 10 µM each time.
Consider `O=C(Cc1ccccc1)Nc1cncc(-c2ccc3[nH]nc(-c4nc5c(-c6ccncc6)ccnc5[nH]4)c3n2)c1` [Compound 122, 2-phenyl-N-(5-(3-(7-(pyridin-4-yl)-3H-imidazo[4,5-b]pyridin-2-yl)-1H-pyrazolo[4,3-b]pyridin-5-yl)pyridin-3-yl)acetamide], for which the results for the inhibition at 10 µM (in test [1]; with SW480 colon cancer cells; in test [2]) were 8.4%, 4.4% and 0%, respectively. The EC50 (in test [1]; with SW480 colon cancer cells; in test [2]) was over 10 µM throughout.
With `CCCC(=O)Nc1cncc(-c2ccc3[nH]nc(-c4nc5c(-c6ccncc6)ccnc5[nH]4)c3n2)c1` [Compound 129, N-(5-(3-(7-(pyridin-4-yl)-3H-imidazo[4,5-b]pyridin-2-yl)-1H-pyrazolo[4,3-b]pyridin-5-yl)pyridin-3-yl)butyramide], the inhibition at 10 µM in test [1] is 4.3%; with SW480 colon cancer cells, 5.7%; in test [2] it was 0%. Also, the concentration for a half-maximal effect (EC50) (in test [1]; with SW480 colon cancer cells; in test [2]) was over 10 µM each time.
Regarding `c1cc(-c2ccc3[nH]nc(-c4nc5c(-c6ccncc6)ccnc5[nH]4)c3n2)ccn1` [Compound 130, 5-(pyridin-4-yl)-3-(7-(pyridin-4-yl)-3H-imidazo[4,5-b]pyridin-2-yl)-1H-pyrazolo [4,3-b]pyridine], the figures for the inhibition at 10 µM (in test [1]; in the test with SW480 colon cancer cells; in test [2]) were 12.1%, 0% and 39.3%, respectively. For the same molecule, the EC50 (in test [1]; in the test on SW480 colon cancer cells; in test [2]) was over 10 µM each time.
In the case of `O=C(Nc1cncc(-c2ccc3[nH]nc(-c4nc5c(-c6ccncc6)ccnc5[nH]4)c3n2)c1)C1CCCCC1` [Compound 135, N-(5-(3-(7-(pyridin-4-yl)-3H-imidazo[4,5-b]pyridin-2-yl)-1H-pyrazolo[4,3-b]pyridin-5-yl)pyridin-3-yl)cyclohexanecarboxamide], the inhibition at 10 µM in test [1] was found to be 10.4%; in the test with SW480 colon cancer cells, 3.8%; in test [2] it was 0%. For the same molecule, the 50% effective concentration (EC50) (in test [1]; with SW480 colon cancer cells; in test [2]) was over 10 µM throughout.
As for `CCNCc1cncc(-c2ccc3[nH]nc(-c4nc5c(-c6ccccn6)ccnc5[nH]4)c3n2)c1` [Compound 146, N-((5-(3-(7-(pyridin-2-yl)-3H-imidazo[4,5-b]pyridin-2-yl)-1H-pyrazolo[4,3-b]pyridin-5-yl)pyridin-3-yl)methyl)ethanamine], the inhibition at 10 µM in test [1] was 10.6%; in the test with SW480 colon cancer cells, 23.3%. The EC50 was over 10 µM in test [1], over 10 µM in the test with SW480 colon cancer cells and 1.13 µM in test [2].
Take `O=C(Nc1cncc(-c2ccc3[nH]nc(-c4nc5c(-c6ccccn6)ccnc5[nH]4)c3n2)c1)c1ccccc1` [Compound 151, N-(5-(3-(7-(Pyridin-2-yl)-3H-imidazo[4,5-b]pyridin-2-yl)-1H-pyrazolo[4,3-b]pyridin-5-yl)pyridin-3-yl)benzamide]: the inhibition at 10 µM worked out at 6.4% in test [1], 2.7% in the test with SW480 colon cancer cells and 0% in test [2]. Besides, the EC50 (in test [1]; in the test with SW480 colon cancer cells; in test [2]) was over 10 µM throughout.
For the molecule `CCCCC(=O)Nc1cncc(-c2ccc3[nH]nc(-c4nc5c(-c6ccccn6)ccnc5[nH]4)c3n2)c1` [Compound 159, N-(5-(3-(7-(pyridin-2-yl)-3H-imidazo[4,5-b]pyridin-2-yl)-1H-pyrazolo[4,3-b]pyridin-5-yl)pyridin-3-yl)pentanamide], the figures for the inhibition at 10 µM (in test [1]; with SW480 colon cancer cells; in test [2]) were 12.6%, 6.7% and 15.4%, respectively. Besides, the EC50 (in test [1]; in the test with SW480 colon cancer cells; in test [2]) was over 10 µM throughout.
As to `CCC(=O)Nc1cncc(-c2ccc3[nH]nc(-c4nc5c(N6CCCCC6)ccnc5[nH]4)c3n2)c1` [Compound 169, N-(5-(3-(7-(piperidin-1-yl)-3H-imidazo[4,5-b]pyridin-2-yl)-1H-pyrazolo[4,3-b]pyridin-5-yl)pyridin-3-yl)propionamide], the inhibition at 10 µM in test [1] was found to be 44.2%. Further, the EC50 was over 10 µM in test [1], 4.65 µM in the test on SW480 colon cancer cells and 5.3 µM in test [2].
Take `CN(C)c1cncc(-c2ccc3[nH]nc(-c4nc5c(N6CCCCC6)ccnc5[nH]4)c3n2)c1` [Compound 175, N,N-dimethyl-5-(3-(7-(piperidin-1-yl)-3H-imidazo[4,5-b]pyridin-2-yl)-1H-pyrazolo [4,3-b]pyridin-5-yl)pyridin-3-amine]: the inhibition at 10 µM in test [1] worked out at 0%; in the test with SW480 colon cancer cells, 13.6%. Moreover, the EC50 in test [1] is over 10 µM; in the test on SW480 colon cancer cells, over 10 µM; in test [2] it was 2.53 µM.
Turning to `CN(C)Cc1cncc(-c2ccc3[nH]nc(-c4nc5c(N6CCCCC6)ccnc5[nH]4)c3n2)c1` [Compound 181, N,N-dimethyl-1-(5-(3-(7-(piperidin-1-yl)-3H-imidazo[4,5-b]pyridin-2-yl)-1H-pyrazolo[4,3-b]pyridin-5-yl)pyridin-3-yl)methanamine], in test [1], the inhibition at 10 µM is 2.2%. The EC50 is over 10 µM in test [1], 5.55 µM in the test on SW480 colon cancer cells and 1.36 µM in test [2].
With `Cc1cn(-c2ccnc3[nH]c(-c4n[nH]c5ccc(-c6cncc(NC(=O)CC(C)C)c6)nc45)nc23)cn1` [Compound 198, 3-methyl-N-(5-(3-(7-(4-methyl-1H-imidazol-1-yl)-3H-imidazo[4,5-b]pyridin-2-yl)-1H-pyrazolo[4,3-b]pyridin-5-yl)pyridin-3-yl)butanamide], the inhibition at 10 µM in test [1] stood at 27.6%; in the test on SW480 colon cancer cells it was 46%; in test [2], 0%. The EC50 (in test [1]; in the test on SW480 colon cancer cells; in test [2]) was over 10 µM in each case.
For the molecule `Cc1cn(-c2ccnc3[nH]c(-c4n[nH]c5ccc(-c6cncc(NC(=O)C(C)(C)C)c6)nc45)nc23)cn1` [Compound 204, N-(5-(3-(7-(4-methyl-1H-imidazol-1-yl)-3H-imidazo[4,5-b]pyridin-2-yl)-1H-pyrazolo[4,3-b]pyridin-5-yl)pyridin-3-yl)pivalamide], the inhibition at 10 µM in test [1] was determined as 12.2%; with SW480 colon cancer cells it was 0%; in test [2], 38.8%. Also, the EC50 (in test [1]; in the test with SW480 colon cancer cells; in test [2]) was over 10 µM each time.
For the molecule `Cc1cn(-c2ccnc3[nH]c(-c4n[nH]c5ccc(-c6cncc(CN7CCCC7)c6)nc45)nc23)cn1` [Compound 210, 3-(7-(4-methyl-1H-imidazol-1-yl)-3H-imidazo[4,5-b]pyridin-2-yl)-5-(5-(pyrrolidin-1-ylmethyl)pyridin-3-yl)-1H-pyrazolo[4,3-b]pyridine], the inhibition at 10 µM in test [1] amounted to 31.5%; in the test with SW480 colon cancer cells, 12.6%. Moreover, the results for the EC50 (in test [1]; with SW480 colon cancer cells; in test [2]) were over 10 µM, over 10 µM and 6.74 µM, respectively.
As for `Cc1cn(-c2ccnc3[nH]c(-c4n[nH]c5ccc(-c6cncc(NC(=O)C7CCC7)c6)nc45)nc23)cn1` [Compound 217, N-(5-(3-(7-(4-methyl-1H-imidazol-1-yl)-3H-imidazo[4,5-b]pyridin-2-yl)-1H-pyrazolo[4,3-b]pyridin-5-yl)pyridin-3-yl)cyclobutanecarboxamide], the inhibition at 10 µM was 13.9% in test [1] and 2.1% in the test on SW480 colon cancer cells. The EC50 is over 10 µM in test [1], over 10 µM in the test on SW480 colon cancer cells and 6.1 µM in test [2].
In the case of `CN1CCN(c2ccnc3[nH]c(-c4n[nH]c5ccc(-c6cncc(N)c6)nc45)nc23)CC1` [Compound 227, 5-(3-(7-(4-methylpiperazin-1-yl)-3H-imidazo[4,5-b]pyridin-2-yl)-1H-pyrazolo[4,3-b]pyridin-5-yl)pyridin-3-amine], the inhibition at 10 µM in test [1] amounted to 8.2%; in the test with SW480 colon cancer cells it was 0%; in test [2], 32.8%. Moreover, the EC50 (in test [1]; in the test with SW480 colon cancer cells; in test [2]) was over 10 µM throughout.
